Tested on: patients with chronic constipation
Assay: Clinical trial, primary efficacy: mean increase of 1 or more CSBM/week over baseline after 4 weeks of treatment (responders), by subgroup and genotype
Assay type: in vivo, human
Conditions: 6-mg bid vs placebo, 4 weeks
Method: Introduction. A clinical trial was performed to evaluate the efficacy of tegaserod (Zelmac®/Zelnorm™) at 6 mg bid (12 mg/day) or 2 mg bid (4 mg/day) vs. placebo by measuring the number of complete spontaneous bowel movements (CSBM) during the first 4 weeks of treatment. Secondary objectives included evaluating the number of CSBM during the entire 12-week treatment period, bowel habits, laxative use, and safety and tolerability issues. The clinical trial design consisted of a 2-week baseline period without medication, a 12-week, randomized, double-blind, placebo-controlled treatment period, and a 4-week withdrawal period without study medication. As part of the clinical trial, DNA was collected from patients at screening for pharmacogenetic analysis to evaluate genetic polymorphisms relating to drug targets and disease aetiology.
Samples. A total 1348 patients were randomized as the intent-to-treat (ITT) population. Blood samples from these patients were collected at the time of patient screening and DNA was extracted using the PUREGENE™ DNA Isolation Kit (D-50K). Of these, samples from 738 randomized patients had good quality genotype data for at least half of the 55 SNPs evaluated.
Clinical assessments. […] The primary efficacy endpoint evaluated was the increase of 1 or more CSBM/week over baseline after 4 weeks of treatment. A secondary endpoint evaluated in this genotyping study was RESP12, the increase of 1 of more CSBM/week over baseline after 12 weeks of treatment. Patients were classified as responders if they met these criteria and had completed at least 7 days of treatment. Additional secondary efficacy assessments were evaluated based on the weekly diary assessments, such as bothersome constipation, bothersome abdominal pain, and satisfaction with bowel habits at the end of the 12-week treatment period (using the baseline value as a co-variant for analysis).
Genotyping. A total of 61 polymorphisms in 23 candidate genes were selected for analysis. Genotyping was performed using the TaqMan® technology for most of the assays, while a few were performed in-house using the Third Wave Technologies Invader Assay technique (see TABLE 2 for assay IDs for all evaluated SNPs). Of the 61 SNPs genotyped, 55 yielded good quality, polymorphic genotypes for use in further evaluation.
Statistical analysis. Statistical analysis was performed using SAS version 8.2 (The SAS Institute, Cary, N.C., USA). Analysis methods included Fisher's Exact tests, analysis of Covariance (ANCOVA), logistic regression, and Mantel-Haenzel tests to determine odds ratios and 95% confidence intervals, with significance established at p<0.05. Calculation of linkage disequilibrium was performed using the GOLD (graphical overview of linkage disequilibrium) method described by Abecasis & Cookson, Bioinformatics 16: 182-3 (2000).
Demographic comparisons. TABLE 3 presents the demographic breakdown of the patients in the overall clinical study and those included in this genotype analysis. Distributions were similar between the genotype population and the total patient population. […] Based on these findings, it was decided to limit analysis to the Caucasian population, which accounted for nearly 90% of all patients, to prevent a confounding effect of race on subsequent genotype analyses. Furthermore, the analysis was also limited to those intent-to-treat patients that were treated with tegaserod or placebo for at least 7 days (total of 635 patients).
Comparison of overall response rates. TABLE 4 presents the overall response for the primary efficacy endpoint (a mean increase in 1 or more CSBM/week over baseline after 4 weeks) for tegaserod 6-mg bid compared with placebo for both the overall patient population and the subgroup of patients for which we had genotype data (all races and Caucasians only). […]

[H]/N=C(/NCCCCC)N/N=C/c1c[nH]c2ccc(OC)cc12 [tegaserod, Tegaserod]
Odds Ratio (All Caucasians (ITT, >=7 days), Age <65, M + F): 2.7
Odds Ratio (All Caucasians (ITT, >=7 days), Age >=65, M + F): 1.2
Odds Ratio (All Caucasians (ITT, >=7 days), Age All, Female): 2.6
Odds Ratio (All Caucasians (ITT, >=7 days), Age All, M + F): 2.5
Odds Ratio (All Caucasians (ITT, >=7 days), Age All, Male): 1.8
Odds Ratio (All genotyped (ITT, >=7 days), Age <65, M + F): 2.8
Odds Ratio (All genotyped (ITT, >=7 days), Age >=65, M + F): 2.4
Odds Ratio (All genotyped (ITT, >=7 days), Age All, Female): 2.7
Odds Ratio (All genotyped (ITT, >=7 days), Age All, M + F): 2.7
Odds Ratio (All genotyped (ITT, >=7 days), Age All, Male): 2.5
Odds Ratio (All patients (ITT, >=7 days), Age <65, M + F): 2.5
Odds Ratio (All patients (ITT, >=7 days), Age >=65, M + F): 1.4
Odds Ratio (All patients (ITT, >=7 days), Age All, Female): 2.4
Odds Ratio (All patients (ITT, >=7 days), Age All, M + F): 2.3
Odds Ratio (All patients (ITT, >=7 days), Age All, Male): 1.9
Odds Ratio (Caucasians genotyped (ITT, >=7 days), Age <65, M + F, all genotypes): 2.8
Odds Ratio (Caucasians genotyped (ITT, >=7 days), Age >=65, M + F, all genotypes): 2.1
Odds Ratio (Caucasians genotyped (ITT, >=7 days), Age All, Female, all genotypes): 2.7
Odds Ratio (Caucasians genotyped (ITT, >=7 days), Age All, M + F, all genotypes): 2.6
Odds Ratio (Caucasians genotyped (ITT, >=7 days), Age All, Male, all genotypes): 2.5
Odds Ratio (ITT Caucasians >=7 days, 0 of 14 SNPs): 1.1
Odds Ratio (ITT Caucasians >=7 days, >=1 of 14 SNPs): 4.1
Odds Ratio (ITT Caucasians >=7 days, AQP3 (PG ID 1838) genotype CC): 2.4
Odds Ratio (ITT Caucasians >=7 days, AQP3 (PG ID 1838) genotype CG): 2.6
Odds Ratio (ITT Caucasians >=7 days, AQP3 (PG ID 1838) genotype GG): 11.3
Odds Ratio (ITT Caucasians >=7 days, Female (All ages), 0 of the 12 SNPs): 1.5
Odds Ratio (ITT Caucasians >=7 days, Female (All ages), 1-12 of the 12 SNPs): 4.7
Odds Ratio (ITT Caucasians >=7 days, HTR3B (PG ID 3755) genotype AA): 2.7
Odds Ratio (ITT Caucasians >=7 days, HTR3B (PG ID 3755) genotype AC): 2.0
Odds Ratio (ITT Caucasians >=7 days, HTR3B (PG ID 3755) genotype CC): 8.0
Odds Ratio (ITT Caucasians >=7 days, HTR4 (PG ID 1746) genotype CC): 2.7
Odds Ratio (ITT Caucasians >=7 days, HTR4 (PG ID 1746) genotype CT): 2.2
Odds Ratio (ITT Caucasians >=7 days, HTR4 (PG ID 1746) genotype TT): 8.4
Odds Ratio (ITT Caucasians >=7 days, HTR4 (PG ID 3743) genotype AA): 3.0
Odds Ratio (ITT Caucasians >=7 days, HTR4 (PG ID 3743) genotype AC): 2.8
Odds Ratio (ITT Caucasians >=7 days, HTR4 (PG ID 3743) genotype CC): 14.0
Odds Ratio (ITT Caucasians >=7 days, HTR4 (PG ID 3747) genotype AA): 3.0
Odds Ratio (ITT Caucasians >=7 days, HTR4 (PG ID 3747) genotype AT): 2.2
Odds Ratio (ITT Caucasians >=7 days, HTR4 (PG ID 3747) genotype TT): 5.8
Odds Ratio (ITT Caucasians >=7 days, HTR4 (PG ID 3753) genotype CC): 2.7
Odds Ratio (ITT Caucasians >=7 days, HTR4 (PG ID 3753) genotype CT): 2.1
Odds Ratio (ITT Caucasians >=7 days, HTR4 (PG ID 3753) genotype TT): 7.0
Odds Ratio (ITT Caucasians >=7 days, HTR4 (PG ID 3754) genotype AA): 3.2
Odds Ratio (ITT Caucasians >=7 days, HTR4 (PG ID 3754) genotype AT): 1.9
Odds Ratio (ITT Caucasians >=7 days, HTR4 (PG ID 3754) genotype TT): 4.9
Odds Ratio (ITT Caucasians >=7 days, HTR4 (PG ID 3756) genotype AA): 2.8
Odds Ratio (ITT Caucasians >=7 days, HTR4 (PG ID 3756) genotype AC): 2.0
Odds Ratio (ITT Caucasians >=7 days, HTR4 (PG ID 3756) genotype CC): 8.1
Odds Ratio (ITT Caucasians >=7 days, M + F (<65), 0 of the 12 SNPs): 1.5
Odds Ratio (ITT Caucasians >=7 days, M + F (<65), 1-12 of the 12 SNPs): 5.3
Odds Ratio (ITT Caucasians >=7 days, M + F (>=65), 0 of the 12 SNPs): 0.3
Odds Ratio (ITT Caucasians >=7 days, M + F (>=65), 1-12 of the 12 SNPs): 7.0
Odds Ratio (ITT Caucasians >=7 days, M + F (All ages), 0 of the 12 high responder SNPs): 1.3
Odds Ratio (ITT Caucasians >=7 days, M + F (All ages), 1-12 of the 12 high responder SNPs): 5.4
Odds Ratio (ITT Caucasians >=7 days, MLN (PG ID 1783) genotype CC): 2.5
Odds Ratio (ITT Caucasians >=7 days, MLN (PG ID 1783) genotype CT): 2.0
Odds Ratio (ITT Caucasians >=7 days, MLN (PG ID 1783) genotype TT): 7.2
Odds Ratio (ITT Caucasians >=7 days, Male (All ages), 0 of the 12 SNPs): 0.3
Odds Ratio (ITT Caucasians >=7 days, Male (All ages), 1-12 of the 12 SNPs): 22.5
Odds Ratio (ITT Caucasians >=7 days, SCNN1A (PG ID 3806) genotype GG): 5.0
Odds Ratio (ITT Caucasians >=7 days, SCNN1A (PG ID 3806) genotype GT): 2.5
Odds Ratio (ITT Caucasians >=7 days, SCNN1A (PG ID 3806) genotype TT): 1.9
Odds Ratio (ITT Caucasians >=7 days, SLC12A2 (PG ID 1842) genotype AA): 12.0
Odds Ratio (ITT Caucasians >=7 days, SLC12A2 (PG ID 1842) genotype AG): 1.1
Odds Ratio (ITT Caucasians >=7 days, SLC12A2 (PG ID 1842) genotype GG): 2.9
Odds Ratio (ITT Caucasians >=7 days, SLC12A2 (PG ID 3801) genotype CC): 17.0
Odds Ratio (ITT Caucasians >=7 days, SLC12A2 (PG ID 3801) genotype CT): 0.8
Odds Ratio (ITT Caucasians >=7 days, SLC12A2 (PG ID 3801) genotype TT): 3.8
Odds Ratio (ITT Caucasians >=7 days, TPH1 (PG ID 1756) genotype GG): 5.4
Odds Ratio (ITT Caucasians >=7 days, TPH1 (PG ID 1756) genotype GT): 2.4
Odds Ratio (ITT Caucasians >=7 days, TPH1 (PG ID 1756) genotype TT): 1.5
Odds Ratio (ITT Caucasians >=7 days, TPH1 (PG ID 3784) genotype CC): 1.6
Odds Ratio (ITT Caucasians >=7 days, TPH1 (PG ID 3784) genotype CT): 2.4
Odds Ratio (ITT Caucasians >=7 days, TPH1 (PG ID 3784) genotype TT): 5.5
Odds Ratio (high responder genotypes of the twelve SNPs in six genes): ≥ 5

From patent US20090118350A1, “Biomarkers for Identifying Efficacy of Tegaserod in Patients with Chronic Constipation” (priority 2005, published 2009)
